The values below come from patent publication US10793563B2, “GCN2 inhibitors and uses thereof” (Merck Patent GmbH, priority 2018, dated 2020).

As usually defined, the IC50 is the concentration needed to halve the response being measured.

The target of one assay is GCN2 kinase (Homo sapiens (Human), UniProt Q9P2K8). In words: GCN2 Enzyme Inhibition Assay (Transcreener ADP2 fluorescence polarization). The format is biochemical. Conditions: 280 μM ATP, 200 μM (RS)7 peptide, 4 nM GCN2, 25° C. The essentials:
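At 25 °C, GCN2 kinase (typical final concentration 4 nM) and (RS)7 peptide in Tris-HCl pH 7.5 buffer with MgCl2, NaCl and DTT were preincubated with compound for 10 min, then ATP was added for a 1 h reaction. ADP was read by FP with antibody/Alexa633 tracer. Non-linear tight-binding analysis gave IC50 and apparent Ki.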
In general terms: Polarisation of emitted light reports the rotation of a fluorescent probe.

The target of assay [1] is intracellular GCN2 (phosphorylation of the GCN2 substrate eIF2α) (Homo sapiens (Human), UniProt Q9P2K8). In words: GCN2 Cellular Inhibition Assay (AlphaScreen SureFire P-eIF2α Ser51, borrelidin-treated U2OS cells). To be noted: 10 μM borrelidin, 1 h, phosphorylated eIF2α Ser51, read-out: GCN2 Biomarker (IC50). The format is cell-based. The essentials: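 Phospho-eIF2α (Ser51) measured by AlphaScreen SureFire in lysates of U2OS cells stimulated 1 h at 37 °C with 10 μM borrelidin alongside compound, 4-fold dilutions from 40 μM. Inhibition expressed as percent relative to borrelidin-alone controls.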
Chain of intracellular GCN2 (phosphorylation of the GCN2 substrate eIF2α) (Q9P2K8 whole entry): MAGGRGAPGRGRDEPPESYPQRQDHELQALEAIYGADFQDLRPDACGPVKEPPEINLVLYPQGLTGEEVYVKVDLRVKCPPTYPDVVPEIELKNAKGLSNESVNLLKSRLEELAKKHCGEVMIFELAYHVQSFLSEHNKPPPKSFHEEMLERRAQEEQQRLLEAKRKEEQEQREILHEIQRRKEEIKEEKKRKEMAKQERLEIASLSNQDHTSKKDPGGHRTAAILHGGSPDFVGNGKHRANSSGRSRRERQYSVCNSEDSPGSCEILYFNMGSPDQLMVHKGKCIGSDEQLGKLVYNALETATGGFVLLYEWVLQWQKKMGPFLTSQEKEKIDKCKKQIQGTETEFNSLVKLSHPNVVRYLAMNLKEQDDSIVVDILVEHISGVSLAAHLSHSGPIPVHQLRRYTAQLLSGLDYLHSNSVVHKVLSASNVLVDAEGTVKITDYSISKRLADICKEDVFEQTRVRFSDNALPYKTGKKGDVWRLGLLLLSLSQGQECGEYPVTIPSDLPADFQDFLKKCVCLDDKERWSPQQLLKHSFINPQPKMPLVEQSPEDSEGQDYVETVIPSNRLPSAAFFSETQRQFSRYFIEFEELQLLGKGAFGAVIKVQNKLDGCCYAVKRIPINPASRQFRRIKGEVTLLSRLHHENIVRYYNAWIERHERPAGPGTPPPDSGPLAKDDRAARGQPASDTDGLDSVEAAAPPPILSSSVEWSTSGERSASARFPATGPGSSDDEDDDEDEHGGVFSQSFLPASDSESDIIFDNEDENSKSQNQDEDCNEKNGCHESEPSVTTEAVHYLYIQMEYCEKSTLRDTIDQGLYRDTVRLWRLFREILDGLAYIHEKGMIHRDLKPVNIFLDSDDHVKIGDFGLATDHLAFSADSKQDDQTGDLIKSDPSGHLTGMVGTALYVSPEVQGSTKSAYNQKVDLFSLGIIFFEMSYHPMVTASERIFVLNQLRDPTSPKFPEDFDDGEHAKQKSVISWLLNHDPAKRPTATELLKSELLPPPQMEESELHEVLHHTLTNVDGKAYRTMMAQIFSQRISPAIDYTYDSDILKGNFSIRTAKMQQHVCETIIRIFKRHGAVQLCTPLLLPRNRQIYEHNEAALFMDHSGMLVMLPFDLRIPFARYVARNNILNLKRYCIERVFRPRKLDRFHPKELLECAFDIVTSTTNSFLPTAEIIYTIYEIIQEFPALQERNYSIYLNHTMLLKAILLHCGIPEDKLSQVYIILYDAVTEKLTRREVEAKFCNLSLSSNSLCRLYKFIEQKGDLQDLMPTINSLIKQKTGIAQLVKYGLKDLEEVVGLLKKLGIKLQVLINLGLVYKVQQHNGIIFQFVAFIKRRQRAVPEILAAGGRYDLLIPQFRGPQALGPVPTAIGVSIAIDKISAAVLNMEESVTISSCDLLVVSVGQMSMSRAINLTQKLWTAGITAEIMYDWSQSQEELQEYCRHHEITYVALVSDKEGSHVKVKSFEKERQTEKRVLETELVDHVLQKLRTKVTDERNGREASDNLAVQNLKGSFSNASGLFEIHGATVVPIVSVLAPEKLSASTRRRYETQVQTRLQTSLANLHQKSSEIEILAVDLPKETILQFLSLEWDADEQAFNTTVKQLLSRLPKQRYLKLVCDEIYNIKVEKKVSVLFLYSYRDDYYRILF

Chain of GCN2 kinase (Q9P2K8 whole entry): as above

For `COc1cc(-c2cnc3ccc(Cl)cn23)nc(N2C[C@@H](C)C[C@@H](c3cn[nH]c3)C2)n1` [I-281, 6-chloro-3-(6-methoxy-2-((3S,5S)-3-methyl-5-(1H-pyrazol-4-yl)piperidin-1-yl)pyrimidin-4-yl)imidazo[1,2-a]pyridine], the figures for the IC50 (against GCN2 kinase; in assay [1]) were 0.01 to 0.1 µM and below 0.5 µM, respectively.

Take `CN(CC1CCCN(c2ccnc(-c3cnc4ccc(Cl)cn34)n2)C1)S(C)(=O)=O` (stereo not drawn) [I-283, N-((1-(2-(6-chloroimidazo[1,2-a]pyridin-3-yl)pyrimidin-4-yl)piperidin-3-yl)methyl)-N-methylmethanesulfonamide]: the IC50 is 0.01 to 0.1 µM against GCN2 kinase and 0.5 to 5 µM in assay [1].

Regarding `CC(C)(C(=O)O)C1CCCN(c2ccnc(-c3cnc4ccc(Cl)cn34)n2)C1` (stereo not drawn) [I-284, 2-(1-(2-(6-chloroimidazo[1,2-a]pyridin-3-yl)pyrimidin-4-yl)piperidin-3-yl)-2-methylpropanoic acid], the values for the IC50 (at GCN2 kinase; in assay [1]) were 0.01 to 0.1 µM and above 5 µM, respectively.

Turning to `CC(C)(C)OC(=O)N1CC2(CCCN(c3ccnc(-c4cnc5ccc(Cl)cn45)n3)C2)C1` [I-285, tert-butyl 6-(2-(6-chloroimidazo[1,2-a]pyridin-3-yl)pyrimidin-4-yl)-2,6-diazaspiro[3.5]nonane-2-carboxylate], the IC50 against GCN2 kinase is 0.1 to 1 µM; in assay [1], 0.5 to 5 µM.

On to `NC(=O)C1CN(c2ccnc(-c3cnc4ccc(Cl)cn34)n2)CCN1C1CC1` (stereo not drawn) [I-286, 4-(2-(6-chloroimidazo[1,2-a]pyridin-3-yl)pyrimidin-4-yl)-1-cyclopropylpiperazine-2-carboxamide], for which the IC50 on GCN2 kinase is below 0.01 µM; in assay [1], 0.5 to 5 µM.

`Cc1cc(-c2cnc3ccc(N4CC(F)(F)C4)cn23)nc(N2C[C@@H](C)C[C@H](c3cn[nH]c3)C2)n1` [I-287, 6-(3,3-difluoroazetidin-1-yl)-3-(6-methyl-2-((3 S, 5R)-3-methyl-5-(1H-pyrazol-4-yl)piperidin-1-yl)pyrimidin-4-yl)imidazo[1,2-a]pyridine]: the IC50 against GCN2 kinase was 0.01 to 0.1 µM; in assay [1], below 0.5 µM.

Take `Cc1cc(-c2cnc3ccc(N4CC(F)(F)C4)cn23)nc(N2C[C@H](C)C[C@H](c3cn[nH]c3)C2)n1` [I-288, 6-(3,3-difluoroazetidin-1-yl)-3-(6-methyl-2-((3R,5R)-3-methyl-5-(1H-pyrazol-4-yl)piperidin-1-yl)pyrimidin-4-yl)imidazo[1,2-a]pyridine]: the IC50 on GCN2 kinase was below 0.01 µM; in assay [1], below 0.5 µM.

As for `C[C@@H]1C[C@H](N=S(C)(C)=O)CN(c2ccnc(-c3cnc4ccc(Br)cn34)n2)C1` [I-289, (((3 S,5R)-1-(2-(6-bromoimidazo[1,2-a]pyridin-3-yl)pyrimidin-4-yl)-5-methylpiperidin-3-yl)imino)dimethyl-λ6-sulfanone], the half-inhibitory concentration (IC50) against GCN2 kinase fell in the range of 0.01 to 0.1 µM; in assay [1], 0.5 to 5 µM.

As for `C[C@@H]1C[C@H](N=S(C)(C)=O)CN(c2ccnc(-c3cnc4ccc(OC(F)(F)F)cn34)n2)C1` [I-290, dimethyl(((3 S,5R)-5-methyl-1-(2-(6-(trifluoromethoxy)imidazo[1,2-a]pyridin-3-yl)pyrimidin-4-yl)piperidin-3-yl)imino)-λ6-sulfanone], the IC50 was 0.01 to 0.1 µM on GCN2 kinase and 0.5 to 5 µM in assay [1].

Take `C[C@@H]1C[C@H](N=S(C)(C)=O)CN(c2ccnc(-c3cnc4ccc(OC(F)F)cn34)n2)C1` [I-291, dimethyl(((3 S,5R)-5-methyl-1-(2-(6-(difluoromethoxy)imidazo[1,2-a]pyridin-3-yl)pyrimidin-4-yl)piperidin-3-yl)imino)-λ6-sulfanone]: the IC50 against GCN2 kinase lay within 0.01 to 0.1 µM; in assay [1] it was 0.5 to 5 µM.

For the compound `CC1(C)CN(c2ccnc(-c3cnc4ccc(C(F)(F)F)cn34)n2)CC2(CNC2)O1` [I-294, 6,6-dimethyl-8-(2-(6-(trifluoromethyl)imidazo[1,2-a]pyridin-3-yl)pyrimidin-4-yl)-5-oxa-2,8-diazaspiro[3.5]nonane], the IC50 was 0.1 to 1 µM against GCN2 kinase and above 5 µM in assay [1].

Turning to `O=C1NC[C@@]12CCCN(c1ccnc(-c3cnc4ccc(C(F)(F)F)cn34)n1)C2` [I-295, (R)-6-(2-(6-(trifluoromethyl)imidazo[1,2-a]pyridin-3-yl)pyrimidin-4-yl)-2,6-diazaspiro[3.5]nonan-1-one], the IC50 against GCN2 kinase lay within 0.01 to 0.1 µM; in assay [1], 0.5 to 5 µM.

For `O=C(O)C1(C2CCCN(c3ccnc(-c4cnc5ccc(Cl)cn45)n3)C2)CC1` (stereo not drawn) [I-297, 1-(1-(2-(6-chloroimidazo[1,2-a]pyridin-3-yl)pyrimidin-4-yl)piperidin-3-yl)cyclopropane-1-carboxylic acid], the IC50 is 0.01 to 0.1 µM against GCN2 kinase and 0.5 to 5 µM in assay [1].

Regarding `O=C(O)CC1CN(c2ccnc(-c3cnc4ccc(Cl)cn34)n2)CCO1` (stereo not drawn) [I-298, 2-(4-(2-(6-chloroimidazo[1,2-a]pyridin-3-yl)pyrimidin-4-yl)morpholin-2-yl)acetic acid], the figures for the IC50 (on GCN2 kinase; in assay [1]) were 0.1 to 1 µM and above 5 µM, respectively.

As for `C[C@@H]1C[C@H](N=S(C)(C)=O)CN(c2ccnc(-c3cnc4ccc(C5CC5)cn34)n2)C1` [I-300, (((3 S,5R)-1-(2-(6-cyclopropylimidazo[1,2-a]pyridin-3-yl)pyrimidin-4-yl)-5-methylpiperidin-3-yl)imino)dimethyl-λ6-sulfanone], the IC50 lay in the range of 0.01 to 0.1 µM against GCN2 kinase and 0.5 to 5 µM in assay [1].

Turning to `CC1CN(c2ccnc(-c3cnc4ccc(Cl)cn34)n2)CC(c2cnn(S(C)(=O)=O)c2)N1S(C)(=O)=O` (stereo not drawn) [I-301, 6-chloro-3-(4-(3-methyl-4-(methylsulfonyl)-5-(1-(methylsulfonyl)-1H-pyrazol-4-yl)piperazin-1-yl)pyrimidin-2-yl)imidazo[1,2-a]pyridine], the IC50 on GCN2 kinase is 0.1 to 1 µM; in assay [1], 0.5 to 5 µM.

As to `Cc1n[nH]cc1C1CC(O)CN(c2ccnc(-c3cnc4ccc(Cl)cn34)n2)C1` (stereo not drawn) [I-302, 1-(2-(6-chloroimidazo[1,2-a]pyridin-3-yl)pyrimidin-4-yl)-5-(3-methyl-1H-pyrazol-4-yl)piperidin-3-ol], the IC50 against GCN2 kinase was below 0.01 µM; in assay [1], below 0.5 µM.

For `NC(=O)C1(C2CCCN(c3ccnc(-c4cnc5ccc(Cl)cn45)n3)C2)CC1` (stereo not drawn) [I-303, 1-(1-(2-(6-chloroimidazo[1,2-a]pyridin-3-yl)pyrimidin-4-yl)piperidin-3-yl)cyclopropane-1-carboxamide], the IC50 at GCN2 kinase was in the range of 0.01 to 0.1 µM; in assay [1] it was 0.5 to 5 µM.

For `CC1(C)CN(c2ccnc(-c3cnc4ccc(C(F)(F)F)cn34)n2)CC2(CN(S(C)(=O)=O)C2)O1` [I-304, 6,6-dimethyl-2-(methylsulfonyl)-8-(2-(6-(trifluoromethyl)imidazo[1,2-a]pyridin-3-yl)pyrimidin-4-yl)-5-oxa-2,8-diazaspiro[3.5]nonane], the IC50 against GCN2 kinase fell in the range of 0.01 to 0.1 µM; in assay [1] it was 0.5 to 5 µM.

As for `Cc1[nH]ncc1[C@H]1C[C@H](O)CN(c2ccnc(-c3cnc4ccc(C(F)(F)F)cn34)n2)C1` [I-307, (3 S, 5R)-5-(5-methyl-1H-pyrazol-4-yl)-1-(2-(6-(trifluoromethyl)imidazo[1,2-a]pyridin-3-yl)pyrimidin-4-yl)piperidin-3-ol], the 50% inhibitory concentration (IC50) is 0.01 to 0.1 µM against GCN2 kinase and 0.5 to 5 µM in assay [1].

For the compound `Cc1[nH]ncc1[C@@H]1C[C@@H](O)CN(c2ccnc(-c3cnc4ccc(C(F)(F)F)cn34)n2)C1` [I-308, (3R,5S)-5-(5-methyl-1H-pyrazol-4-yl)-1-(2-(6-(trifluoromethyl)imidazo[1,2-a]pyridin-3-yl)pyrimidin-4-yl)piperidin-3-ol], the IC50 fell in the range of 0.01 to 0.1 µM at GCN2 kinase and 0.5 to 5 µM in assay [1].

In the case of `CC1[C@@H](c2cn[nH]c2)NCCN1c1ccnc(-c2cnc3ccc(C(F)(F)F)cn23)n1` (stereo partly drawn) [I-310, 3-(4-((3R)-2-methyl-3-(1H-pyrazol-4-yl)piperazin-1-yl)pyrimidin-2-yl)-6-(trifluoromethyl)imidazo[1,2-a]pyridine], the IC50 against GCN2 kinase is below 0.01 µM; in assay [1] it was below 0.5 µM.

Regarding `NC(=O)C1CN(c2ccnc(-c3cnc4ccc(C(F)(F)F)cn34)n2)CCN1C1CC1` (stereo not drawn) [I-311, 1-cyclopropyl-4-(2-(6-(trifluoromethyl)imidazo[1,2-a]pyridin-3-yl)pyrimidin-4-yl)piperazine-2-carboxamide], the results for the IC50 (at GCN2 kinase; in assay [1]) were 0.01 to 0.1 µM and 0.5 to 5 µM, respectively.

As for `CS(=O)(=O)c1ccc2ncc(-c3nccc(N4CCCC(c5cn[nH]c5)C4)n3)n2c1` (stereo not drawn) [I-313, 3-(4-(3-(1H-pyrazol-4-yl)piperidin-1-yl)pyrimidin-2-yl)-6-(methylsulfonyl)imidazo[1,2-a]pyridine], the IC50 fell in the range of 0.01 to 0.1 µM against GCN2 kinase and 0.5 to 5 µM in assay [1].

For `NC(=O)[C@H]1C[C@H](O)CN(c2nccc(-c3cnc4ccc(Cl)cn34)n2)C1` [I-316, (3 S,5S)-1-(4-(6-chloroimidazo[1,2-a]pyridin-3-yl)pyrimidin-2-yl)-5-hydroxypiperidine-3-carboxamide], the results for the IC50 (on GCN2 kinase; in assay [1]) were below 0.01 µM and below 0.5 µM, respectively.

Regarding `C[C@@H]1C[C@H](N=S(C)(C)=O)CN(c2ccnc(-c3cnc4cc(F)c(Br)cn34)n2)C1` [I-317, (((3 S,5R)-1-(2-(6-bromo-7-fluoroimidazo[1,2-a]pyridin-3-yl)pyrimidin-4-yl)-5-methylpiperidin-3-yl)imino)dimethyl-λ6-sulfanone], the IC50 lay within 0.01 to 0.1 µM on GCN2 kinase and 0.5 to 5 µM in assay [1].

`O=S(=O)(NC1CC1)c1ccc2ncc(-c3nccc(N4CCCC(c5cn[nH]c5)C4)n3)n2c1` (stereo not drawn) [I-318, 3-(4-(3-(1H-pyrazol-4-yl)piperidin-1-yl)pyrimidin-2-yl)-N-cyclopropylimidazo[1,2-a]pyridine-6-sulfonamide]: the concentration for half-maximal inhibition (IC50) against GCN2 kinase is 0.1 to 1 µM; in assay [1] it was above 5 µM.
